Data published in patent publication US10245261B2, “Substituted indol-5-ol derivatives and their therapeutic applications” (NantBioScience, Inc., priority 2013, dated 2019).

Key:
Assay in all cases: KinaseProfiler kinase assay
Assay type in all cases: biochemical
Met(Y1248C)(h) = Met(Y1248C)(h) (Homo sapiens, UniProt P08581, Y1230C)
Summary of the method: (§1)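 Compounds were serially diluted from DMSO into 20 mM MOPS buffer with EDTA, Brij-35, glycerol, β-mercaptoethanol and 1 mg/mL BSA. Reactions started with MgATP/[γ-33P]ATP, ran 40 min at room temperature, and phosphorylation was measured by scintillation counting after filtermat capture.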

MST1(h) = MST1(h) (Homo sapiens, UniProt Q13043)
Summary of the method: as §1

AMPKα2(h) = AMPKα2(h) (Homo sapiens, UniProt P54646)
Summary of the method: as §1

TrkA(h) = TrkA(h) (Homo sapiens, UniProt P04629)
Summary of the method: as §1

PEK(h) = PEK(h) (Homo sapiens, UniProt Q9NZJ5)
Summary of the method: as §1

Rse(h) = Rse(h) (Homo sapiens, UniProt Q06418)
Summary of the method: as §1

[1] = target: PI3 Kinase (p110β/p85β)(m) (Mus musculus, UniProt Q8BTI9)
Summary of the method: as §1

ACK1(h) = ACK1(h) (Homo sapiens, UniProt Q07912)
Summary of the method: as §1

cKit(V654A)(h) = cKit(V654A)(h) (Homo sapiens, UniProt P10721, V654A)
Summary of the method: as §1

PKCα(h) = PKCα(h) (Homo sapiens, UniProt P17252)
Summary of the method: as §1

MST3(h) = MST3(h) (Homo sapiens, UniProt Q9Y6E0)
Summary of the method: as §1

eEF-2K(h) = eEF-2K(h) (Homo sapiens, UniProt O00418)
Summary of the method: as §1

VRK2(h) = VRK2(h) (Homo sapiens, UniProt Q86Y07)
Summary of the method: as §1

NEK2(h) = NEK2(h) (Homo sapiens, UniProt P51955)
Summary of the method: as §1

[2] = target: PI3 Kinase (p110β/p85α)(m) (Mus musculus, UniProt Q8BTI9)
Summary of the method: as §1

BrSK1(h) = BrSK1(h) (Homo sapiens, UniProt Q8TDC3)
Summary of the method: as §1

CHK1(h) = CHK1(h) (Homo sapiens, UniProt O14757)
Summary of the method: as §1

Met(M1268T)(h) = Met(M1268T)(h) (Homo sapiens, UniProt P08581, M1250T)
Summary of the method: as §1

TSSK1(h) = TSSK1(h) (Homo sapiens, UniProt Q9BXA7)
Summary of the method: as §1

PKCδ(h) = PKCδ(h) (Homo sapiens, UniProt Q05655)
Summary of the method: as §1

LKB1(h) = LKB1(h) (Homo sapiens, UniProt Q15831)
Summary of the method: as §1

TAK1(h) = TAK1(h) (Homo sapiens, UniProt O43318)
Summary of the method: as §1

EphA1(h) = EphA1(h) (Homo sapiens, UniProt P21709)
Summary of the method: as §1

Fer(h) = Fer(h) (Homo sapiens, UniProt P16591)
Summary of the method: as §1

Fes(h) = Fes(h) (Homo sapiens, UniProt P07332)
Summary of the method: as §1

EphB3(h) = EphB3(h) (Homo sapiens, UniProt P54753)
Summary of the method: as §1

LOK(h) = LOK(h) (Homo sapiens, UniProt O94804)
Summary of the method: as §1

IRAK4(h) = IRAK4(h) (Homo sapiens, UniProt Q9NWZ3)
Summary of the method: as §1

HIPK2(h) = HIPK2(h) (Homo sapiens, UniProt Q9H2X6)
Summary of the method: as §1

CDK7/cyclinH/MAT1(h) = CDK7/cyclinH/MAT1(h) (Homo sapiens, UniProt P50613)
Summary of the method: as §1

PAK5(h) = PAK5(h) (Homo sapiens, UniProt Q9P286)
Summary of the method: as §1

Pyk2(h) = Pyk2(h) (Homo sapiens, UniProt Q14289)
Summary of the method: as §1

Chain of VRK2(h) (Q86Y07 whole entry): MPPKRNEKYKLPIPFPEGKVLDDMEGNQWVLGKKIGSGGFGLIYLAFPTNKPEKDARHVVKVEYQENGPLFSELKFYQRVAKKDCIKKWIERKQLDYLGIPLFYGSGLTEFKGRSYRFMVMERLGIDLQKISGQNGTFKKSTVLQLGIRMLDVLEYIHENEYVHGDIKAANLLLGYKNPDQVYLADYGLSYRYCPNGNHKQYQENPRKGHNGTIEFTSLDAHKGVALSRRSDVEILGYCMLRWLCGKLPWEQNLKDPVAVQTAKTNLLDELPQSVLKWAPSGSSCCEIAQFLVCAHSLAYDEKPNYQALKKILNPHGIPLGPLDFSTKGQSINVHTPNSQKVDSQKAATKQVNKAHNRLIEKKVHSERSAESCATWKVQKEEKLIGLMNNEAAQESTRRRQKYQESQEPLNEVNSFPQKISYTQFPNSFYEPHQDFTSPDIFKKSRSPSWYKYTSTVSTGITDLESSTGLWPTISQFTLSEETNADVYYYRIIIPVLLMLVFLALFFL
Chain of Rse(h) (Q06418 41-890): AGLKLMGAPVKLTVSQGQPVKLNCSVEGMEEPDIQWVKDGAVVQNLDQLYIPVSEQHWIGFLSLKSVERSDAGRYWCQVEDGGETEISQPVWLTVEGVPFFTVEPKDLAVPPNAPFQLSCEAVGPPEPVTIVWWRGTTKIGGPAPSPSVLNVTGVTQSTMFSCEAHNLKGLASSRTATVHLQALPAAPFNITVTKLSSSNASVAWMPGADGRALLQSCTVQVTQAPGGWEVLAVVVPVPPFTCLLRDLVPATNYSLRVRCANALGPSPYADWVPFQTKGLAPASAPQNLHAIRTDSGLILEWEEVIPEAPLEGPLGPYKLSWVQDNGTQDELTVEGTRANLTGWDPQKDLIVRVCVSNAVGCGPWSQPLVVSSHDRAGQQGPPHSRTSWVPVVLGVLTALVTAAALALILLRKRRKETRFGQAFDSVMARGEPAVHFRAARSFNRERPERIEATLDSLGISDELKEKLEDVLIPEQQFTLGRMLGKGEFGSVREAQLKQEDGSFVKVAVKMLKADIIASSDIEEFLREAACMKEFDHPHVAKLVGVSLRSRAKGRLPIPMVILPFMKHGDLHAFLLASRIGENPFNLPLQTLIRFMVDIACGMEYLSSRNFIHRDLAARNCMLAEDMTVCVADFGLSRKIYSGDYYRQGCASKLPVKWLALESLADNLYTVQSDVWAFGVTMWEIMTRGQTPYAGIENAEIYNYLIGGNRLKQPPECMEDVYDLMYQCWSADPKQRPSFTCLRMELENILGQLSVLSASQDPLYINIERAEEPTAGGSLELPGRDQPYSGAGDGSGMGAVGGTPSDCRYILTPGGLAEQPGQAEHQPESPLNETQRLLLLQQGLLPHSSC
Chain of PEK(h) (Q9NZJ5 30-1116): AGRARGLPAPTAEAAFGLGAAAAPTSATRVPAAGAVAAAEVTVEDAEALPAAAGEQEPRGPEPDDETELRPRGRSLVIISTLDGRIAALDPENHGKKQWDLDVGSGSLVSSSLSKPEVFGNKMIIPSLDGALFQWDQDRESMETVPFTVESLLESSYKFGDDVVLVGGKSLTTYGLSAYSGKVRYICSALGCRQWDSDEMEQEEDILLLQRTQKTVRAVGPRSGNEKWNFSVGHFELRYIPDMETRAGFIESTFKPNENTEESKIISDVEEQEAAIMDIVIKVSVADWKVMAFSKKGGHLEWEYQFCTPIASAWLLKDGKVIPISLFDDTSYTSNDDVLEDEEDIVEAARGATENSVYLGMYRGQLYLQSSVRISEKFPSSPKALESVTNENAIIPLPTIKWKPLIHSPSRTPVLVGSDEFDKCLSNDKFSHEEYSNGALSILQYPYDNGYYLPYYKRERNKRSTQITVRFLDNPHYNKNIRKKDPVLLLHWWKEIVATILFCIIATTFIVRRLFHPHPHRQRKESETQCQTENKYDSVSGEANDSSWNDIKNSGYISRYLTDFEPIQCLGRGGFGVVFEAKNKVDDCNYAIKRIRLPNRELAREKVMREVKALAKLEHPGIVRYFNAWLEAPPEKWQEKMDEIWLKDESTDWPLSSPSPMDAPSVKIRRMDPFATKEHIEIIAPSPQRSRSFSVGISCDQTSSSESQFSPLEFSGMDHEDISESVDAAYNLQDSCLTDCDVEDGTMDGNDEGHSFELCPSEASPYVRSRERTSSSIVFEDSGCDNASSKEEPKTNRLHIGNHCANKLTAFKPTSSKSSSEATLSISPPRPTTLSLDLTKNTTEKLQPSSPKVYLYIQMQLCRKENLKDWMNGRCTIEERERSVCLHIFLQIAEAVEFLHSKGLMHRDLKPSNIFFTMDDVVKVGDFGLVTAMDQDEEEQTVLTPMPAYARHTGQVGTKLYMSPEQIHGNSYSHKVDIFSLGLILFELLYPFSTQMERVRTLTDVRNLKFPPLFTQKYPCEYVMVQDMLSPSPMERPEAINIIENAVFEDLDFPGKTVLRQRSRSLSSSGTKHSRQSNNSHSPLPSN
Chain of AMPKα2(h) (P54646 whole entry): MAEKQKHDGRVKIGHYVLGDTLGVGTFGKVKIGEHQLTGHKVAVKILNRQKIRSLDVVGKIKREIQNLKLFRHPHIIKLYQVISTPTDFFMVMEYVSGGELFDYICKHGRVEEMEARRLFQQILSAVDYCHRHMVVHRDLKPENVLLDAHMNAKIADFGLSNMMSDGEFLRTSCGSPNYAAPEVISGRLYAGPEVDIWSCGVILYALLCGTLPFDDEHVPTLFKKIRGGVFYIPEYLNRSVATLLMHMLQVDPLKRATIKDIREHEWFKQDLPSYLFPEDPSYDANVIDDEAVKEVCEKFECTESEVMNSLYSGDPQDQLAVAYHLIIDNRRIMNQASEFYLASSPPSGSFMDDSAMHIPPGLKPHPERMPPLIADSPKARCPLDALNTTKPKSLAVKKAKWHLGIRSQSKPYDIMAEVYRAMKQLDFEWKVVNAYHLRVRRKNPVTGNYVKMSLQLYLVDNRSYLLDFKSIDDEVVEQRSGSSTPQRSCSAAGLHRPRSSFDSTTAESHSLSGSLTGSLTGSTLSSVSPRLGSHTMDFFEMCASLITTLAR
Chain of AMPKα2(h) (Q9Y478 whole entry partner): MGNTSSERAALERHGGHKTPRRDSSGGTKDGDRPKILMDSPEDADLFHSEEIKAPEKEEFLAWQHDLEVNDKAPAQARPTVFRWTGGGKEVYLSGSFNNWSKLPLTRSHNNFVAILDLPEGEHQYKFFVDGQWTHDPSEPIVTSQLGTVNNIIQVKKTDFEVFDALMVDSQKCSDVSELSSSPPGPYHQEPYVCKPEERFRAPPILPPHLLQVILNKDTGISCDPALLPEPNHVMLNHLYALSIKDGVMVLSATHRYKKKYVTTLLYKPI
Chain of AMPKα2(h) (P54619 whole entry partner): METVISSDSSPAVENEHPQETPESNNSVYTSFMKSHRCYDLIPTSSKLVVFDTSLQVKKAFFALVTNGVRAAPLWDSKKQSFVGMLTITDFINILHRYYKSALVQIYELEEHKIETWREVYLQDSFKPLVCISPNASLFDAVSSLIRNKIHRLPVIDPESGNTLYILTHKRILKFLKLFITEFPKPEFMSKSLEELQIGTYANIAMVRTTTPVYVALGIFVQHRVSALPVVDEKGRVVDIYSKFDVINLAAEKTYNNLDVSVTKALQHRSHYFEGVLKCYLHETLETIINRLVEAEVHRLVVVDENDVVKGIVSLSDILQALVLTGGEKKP
Chain of LKB1(h) (Q15831 whole entry): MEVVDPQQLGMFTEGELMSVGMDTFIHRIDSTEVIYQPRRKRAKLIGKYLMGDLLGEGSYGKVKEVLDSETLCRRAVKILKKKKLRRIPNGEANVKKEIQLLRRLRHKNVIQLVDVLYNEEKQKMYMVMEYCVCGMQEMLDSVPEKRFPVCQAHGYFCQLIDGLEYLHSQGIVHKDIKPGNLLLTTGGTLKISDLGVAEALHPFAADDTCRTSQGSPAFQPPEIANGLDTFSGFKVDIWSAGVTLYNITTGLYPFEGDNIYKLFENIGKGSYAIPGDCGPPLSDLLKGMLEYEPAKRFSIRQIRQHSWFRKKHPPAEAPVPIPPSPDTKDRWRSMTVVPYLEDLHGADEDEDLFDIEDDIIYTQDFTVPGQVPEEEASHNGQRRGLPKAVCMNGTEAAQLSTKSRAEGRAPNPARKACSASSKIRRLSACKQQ
Chain of LKB1(h) (Q7RTN6 whole entry partner): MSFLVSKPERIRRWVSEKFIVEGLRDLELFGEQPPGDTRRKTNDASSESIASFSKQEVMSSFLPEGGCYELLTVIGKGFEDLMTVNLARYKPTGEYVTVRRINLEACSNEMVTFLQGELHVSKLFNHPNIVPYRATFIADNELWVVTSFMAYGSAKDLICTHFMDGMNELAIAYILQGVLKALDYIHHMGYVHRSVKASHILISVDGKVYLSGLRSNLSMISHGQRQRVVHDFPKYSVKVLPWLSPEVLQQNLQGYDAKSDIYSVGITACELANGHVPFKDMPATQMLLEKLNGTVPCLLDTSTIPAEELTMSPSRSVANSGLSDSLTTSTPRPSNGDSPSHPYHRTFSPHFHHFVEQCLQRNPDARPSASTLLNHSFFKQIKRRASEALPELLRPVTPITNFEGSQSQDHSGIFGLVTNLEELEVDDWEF
Chain of LKB1(h) (Q9Y376 whole entry partner): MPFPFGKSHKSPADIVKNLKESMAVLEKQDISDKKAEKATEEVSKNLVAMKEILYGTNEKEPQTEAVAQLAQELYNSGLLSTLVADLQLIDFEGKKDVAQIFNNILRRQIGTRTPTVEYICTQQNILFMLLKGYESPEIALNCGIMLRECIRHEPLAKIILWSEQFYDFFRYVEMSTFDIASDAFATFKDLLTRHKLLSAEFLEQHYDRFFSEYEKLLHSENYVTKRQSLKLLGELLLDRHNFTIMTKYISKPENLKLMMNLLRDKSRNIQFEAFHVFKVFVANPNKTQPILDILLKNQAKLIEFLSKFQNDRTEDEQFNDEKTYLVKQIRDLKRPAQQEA

Row | SMILES | inhibition at 0.1 µM (Met(Y1248C)(h)) [%] | inhibition at 0.1 µM (MST1(h)) [%] | inhibition at 0.1 µM (AMPKα2(h)) [%] | inhibition at 0.1 µM (TrkA(h)) [%] | inhibition at 0.1 µM (PEK(h)) [%] | inhibition at 0.1 µM (Rse(h)) [%] | inhibition at 0.1 µM [1] [%] | inhibition at 0.1 µM (ACK1(h)) [%] | inhibition at 0.1 µM (cKit(V654A)(h)) [%] | inhibition at 0.1 µM (PKCα(h)) [%] | inhibition at 0.1 µM (MST3(h)) [%] | inhibition at 0.1 µM (eEF-2K(h)) [%] | inhibition at 0.1 µM (VRK2(h)) [%] | inhibition at 0.1 µM (NEK2(h)) [%] | inhibition at 0.1 µM [2] [%] | inhibition at 0.1 µM (BrSK1(h)) [%] | inhibition at 0.1 µM (CHK1(h)) [%] | inhibition at 0.1 µM (Met(M1268T)(h)) [%] | inhibition at 0.1 µM (TSSK1(h)) [%] | inhibition at 0.1 µM (PKCδ(h)) [%] | other results
1 | Cc1cc2c(F)c(Oc3nc(Nc4cc(C5CC5)[nH]n4)cc(N4CCN(C)CC4)n3)ccc2[nH]1 [Compound 10] | 57 | 78 | 90 | 102 | -4 | 3 | -1 | 99 | 35 | 4 | 85 | -15 | 34 | 6 | 0 | 47 | 16 | 91 | 4 | 5 | inhibition at 0.1 µM (LKB1(h)): 14%; inhibition at 0.1 µM (TAK1(h)): 38%; inhibition at 0.1 µM (EphA1(h)): 78%; inhibition at 0.1 µM (Fer(h)): 38%; inhibition at 0.1 µM (Fes(h)): 48%; inhibition at 0.1 µM (EphB3(h)): -8%; inhibition at 0.1 µM (LOK(h)): 73%; inhibition at 0.1 µM (IRAK4(h)): 37%; inhibition at 0.1 µM (HIPK2(h)): -2%; inhibition at 0.1 µM (CDK7/cyclinH/MAT1(h)): 44%; inhibition at 0.1 µM (PAK5(h)): 60%; inhibition at 0.1 µM (Pyk2(h)): 64%
2 | Cc1cc2c(F)c(Oc3nc(Nc4cc(C5CC5)[nH]n4)cc(N4CCNCC4)n3)ccc2[nH]1 [Compound 11, N-(5-cyclopropyl-1H-pyrazol-3-yl)-2-((4-fluoro-2-methyl-1H-indol-5-yl)oxy)-6-(piperazin-1-yl)pyrimidin-4-amine] | 95 | 74 | 88 | 100 | -8 | 11 | -1 | 95 | 53 | -3 | 80 | 10 | 4 | -7 | 1 | 40 | 0 | 72 | 3 | 5 | inhibition at 0.1 µM (LKB1(h)): -1%; inhibition at 0.1 µM (TAK1(h)): 44%; inhibition at 0.1 µM (EphA1(h)): 92%; inhibition at 0.1 µM (Fer(h)): 45%; inhibition at 0.1 µM (Fes(h)): 54%; inhibition at 0.1 µM (EphB3(h)): -18%; inhibition at 0.1 µM (LOK(h)): 86%; inhibition at 0.1 µM (IRAK4(h)): 13%; inhibition at 0.1 µM (HIPK2(h)): 0%; inhibition at 0.1 µM (CDK7/cyclinH/MAT1(h)): 26%; inhibition at 0.1 µM (PAK5(h)): 68%; inhibition at 0.1 µM (Pyk2(h)): 63%
